Experimental findings from paper PMC11642889, “Structure-Based Screening and Optimization of PafA Inhibitors with Potent Anti-Tuberculosis Activity” (International Journal of Molecular Sciences, 2024) are described below.

The target of this test is Mtb PafA (Mycobacterium tuberculosis, UniProt P9WNU7). The test can be described thus: fluorescent pupylation assay of PanB with 5-carboxyfluorescein-cys-Pup^E. It counts as biochemical.
Mtb PafA, sequence (P9WNU7 whole entry, looked up): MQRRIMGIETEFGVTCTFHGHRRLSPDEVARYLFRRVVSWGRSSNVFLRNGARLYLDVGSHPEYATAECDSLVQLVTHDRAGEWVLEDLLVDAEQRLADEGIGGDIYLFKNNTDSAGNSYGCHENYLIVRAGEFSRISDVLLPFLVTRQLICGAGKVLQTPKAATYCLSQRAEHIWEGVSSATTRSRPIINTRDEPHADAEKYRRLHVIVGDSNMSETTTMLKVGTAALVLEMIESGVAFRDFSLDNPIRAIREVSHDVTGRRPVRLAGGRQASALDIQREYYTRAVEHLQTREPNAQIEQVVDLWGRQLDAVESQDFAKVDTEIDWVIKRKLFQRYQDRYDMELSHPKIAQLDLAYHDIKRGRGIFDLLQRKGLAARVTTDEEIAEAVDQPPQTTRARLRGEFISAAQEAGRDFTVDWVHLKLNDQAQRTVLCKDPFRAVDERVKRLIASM

For the molecule `NS(=O)(=O)c1ccc(NC(=S)NCCc2ccc(F)cc2)cc1` [Pi-2-26], the IC50 turned out to be 0.0462 ± 0.00796 µM.
